These results are taken from patent US8283365B2, “Indole modulators of the alpha 7 nicotinic acetylcholine receptor” (Proximagen Limited, priority 2008, dated 2012).

This experiment addresses T1, human α7 nAChR (Homo sapiens, UniProt P36544).
T1 construct: expressed in transfected cells; host or cells: GH4C1 (rat pituitary) cell line, stably transfected
Nature of the experiment: FLIPR cell-based calcium flux assay for PAM activity at α7 nAChR (nicotine-evoked response). As to conditions: GH4C1 cell line stably transfected with human α7 nAChR. The procedure: The PAM activity of the compounds of the invention at the α7 nAChR may be determined using the following cell-based calcium flux assay which uses a Fluorimetric Image Plate Reader (FLIPR) (see Schroeder et al.; J. Biomolecular Screening, 1(2), p 75-80, 1996).
GH4C1 cell line stably transfected with human α7 nAChR was suspended in a 384 well plate and incubated at 30° C. for 48 h in a 5% carbon dioxide atmosphere. The growth media was removed and the cells washed three times with a solution of Hanks' balanced salt solution (HBSS), 20 mM HEPES and 2.5 mM probenecid leaving 20 μl washing solution in each well. A loading solution (20 μl) containing HBSS, probenecid, 1-4 μM Fluo4 AM (a calcium indicator dye) and pluronic acid was added and the plate incubated for 45 min at 37° C. under an atmosphere free from carbon dioxide. The cells were washed three times leaving 30 μl in each well. The plate containing the cells and calcium indicator dye were then transferred to the FLIPR. The assay was initiated by collecting baseline datapoints at 10 second intervals followed by addition of the test compound in buffer solution (0.33% DMSO) and diluted to a final concentration of 10 μM and serial dilution of the wells, 1:2 or 1:3, gave a low concentration of <1 nM. Following a further 5-10 mins 10 μl of 50 μM nicotine was added and data collected for 2-3 mins. […]

T1 sequence (P36544 23-502): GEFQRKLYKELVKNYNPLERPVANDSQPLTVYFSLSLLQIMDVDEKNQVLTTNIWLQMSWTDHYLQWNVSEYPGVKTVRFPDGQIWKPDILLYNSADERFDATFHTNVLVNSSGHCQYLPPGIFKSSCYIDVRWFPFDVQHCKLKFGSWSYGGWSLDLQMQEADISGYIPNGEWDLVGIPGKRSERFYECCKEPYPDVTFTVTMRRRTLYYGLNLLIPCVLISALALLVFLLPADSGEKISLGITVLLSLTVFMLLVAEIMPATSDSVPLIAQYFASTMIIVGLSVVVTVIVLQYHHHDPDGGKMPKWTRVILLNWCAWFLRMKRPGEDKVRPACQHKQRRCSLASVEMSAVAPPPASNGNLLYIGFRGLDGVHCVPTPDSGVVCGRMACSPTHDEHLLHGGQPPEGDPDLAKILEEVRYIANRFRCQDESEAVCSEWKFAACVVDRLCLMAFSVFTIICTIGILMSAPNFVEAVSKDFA

Consider `O=C(NCc1ccc2[nH]c(C(F)(F)F)cc2c1)c1ccc(C(F)(F)F)nc1` [Compound 1, N-[(2-Trifluoromethyl-1H-indol-5-yl)methyl]-6-(trifluoromethyl)-3-pyridinecarboxamide], for which the EC50 – broadly, the concentration at which the effect is half-maximal – (potentiation of nicotine-evoked calcium flux) is less than 1 µM. The “maximum potentiation of the response area relative to nicotine control” value (relative to nicotine control) is listed as “approximately 1200%”.
